# Patent publication US20100248272A1, “Method for identifying Smk box riboswitch modulating compounds” (Cornell University, priority 2009, published 2010)
# pKd: −log10 of the molar value. “And” between values parts separate entries of the source, which are not always exact repeats. Identical values can stand only once. “Also recorded” adds a separate entry of the source.
# Tests used:
# SMK box riboswitch = assay: Competition binding assay SAM versus SAH; parameters: species or system E. faecalis; conditions: >100-fold excess of SAH over SAM
# From the text: FIGS. 6A, 6B. Effects of SMK box riboswitch mutagenesis on SAM binding and apparent SAM binding constant (Ka) determination. (A) Effects of mutation (with s.d.) on SAM binding by size-exclusion filtration assay, as described. (B) SAM and SAH Kd determination by competition binding assay.
# (§1) The Kd value for the full-length SMK transcript was further confirmed by fluorescence-quenching assays, as described below and shown in FIG. 11.
# [1] = system: wild-type 15-118 metK leader RNA (bipartite, 2-AP at A29); assay: Kd measurement by 2-AP fluorescence quenching; format: binding, E. faecalis; conditions: for quenching of 2-AP fluorescence: wild-type RNA
# Experimental: (§2) FIG. 11. […] Increasing concentrations of SAM were added to bipartite metK leader RNA containing an internal 2-AP modification at residue A29. 2-AP fluorescence at steady-state was measured at 375 nm with an excitation wavelength of 310 nm. […] Percent quenching (ΔF/F0×100) represents the change in fluorescence normalized to the initial fluorescence observed in the absence of SAM.
# (§3) For this, a bipartite RNA comprised of two half RNAs was used, which corresponds to positions 15-46 and 47-118. The two RNA halves are predicted to anneal through extensive base pairing in the P1-P3 helices to form the full-length metK leader RNA corresponding to positions 15-118, with a nick immediately upstream of residue G47 at the top of the P3 stein loop.
# (§4) A 2-aminopurine (2-AP) modification was incorporated into the upstream RNA at residue A29 to monitor local conformational changes occurring at this position in response to SAM binding using florescence spectroscopy.
# [2] = system: E. faecalis metK-lacZ fusion A93C
# Experimental: (§5) In this experiment, in vivo lacZ reporter gene assays were conducted as previously described (R. T. Fuchs, et al., 2006, Ibid. and R. T. Fuchs, et al., 2007, Ibid.). Enterococcus faecalis metK leader region constructs, which included the first 15 nt of the coding region, were positioned downstream of the highly expressed B. subtilis glyQS promoter. The resulting DNA fragment was inserted into a lacZ fusion vector (pFG328) to generate an in-frame metK-lacZ translational fusion in which the first five codons of metK were fused to codon 18 of lacZ. The constructs were introduced into the chromosome of B. subtilis strain BR151 (metB10 lys-3trpC2) by integration into an SPβ prophage. Bacillus subtilis strains containing the lacZ fusions were grown at 37° C. in Spizizen minimal medium containing methionine ([…]) until early exponential growth. The cells were harvested by centrifugation at 8,000 g and resuspended in Spizizen medium either with or without methionine, and samples were collected at 1-h intervals and assayed for β-galactosidase activity after toluene permeabilization of the cells.
# [3] = system: E. faecalis metK-lacZ fusion C24G
# Experimental: as §5
# [4] = system: E. faecalis metK-lacZ fusion C24U + G91A
# Experimental: as §5
# [5] = system: E. faecalis metK-lacZ fusion C24U
# Experimental: as §5
# [6] = system: E. faecalis metK-lacZ fusion C25U + G90A
# Experimental: as §5
# [7] = system: E. faecalis metK-lacZ fusion C25U
# Experimental: as §5
# [8] = system: E. faecalis metK-lacZ fusion U22G + A93C
# Experimental: as §5
# [9] = system: E. faecalis metK-lacZ fusion U22G
# Experimental: as §5
# [10] = system: E. faecalis metK-lacZ fusion WT
# Experimental: as §5
# [11] = system: E. faecalis metK-lacZ fusion WT; conditions: cells grown in the presence of high methionine concentrations; previously shown; cited from earlier work
# [12] = molecular target: full-length E. faecalis metK RNA (wild-type 15-118 metK leader sequence); assay: Apparent Kd determination by size-exclusion filtration (modified SAM binding assay); conditions: full-length transcript, positions 15-118; [3H]-SAM
# Experimental: (§6) The apparent equilibrium dissociation constants (Kd values) for the wild-type 15-118 metK leader sequence and the 53-nucleotide crystallization construct were determined using a modified SAM binding assay (J. Tomsic, et al., J. Bacteriol., 190, 823-833 (2007)). Briefly, T7 RNA polymerase transcribed RNA (1 μM) in 1× transcription buffer was refolded as described above and incubated with [^3H]-SAM ranging in concentration from 0.02 to 10 μM. Binding reactions were loaded onto Nanosep 3K Omega filters (Pall Life Sciences) and centrifuged briefly at 14,000 g to avoid large volume changes. The concentration of the RNA-[^3H]-SAM complex retained by the filter and the unbound SAM present in the flow through were determined by scintillation counting of known volumes, and nonlinear regression analyses were performed using Kaleida-Graph Version 3.51 (Synergy Software). Apparent Kd values represent the averages of at least two independent experiments for each construct with a margin of error≦5%.
# as §1
# [13] = molecular target: SMK6 crystallization construct (53-nucleotide SMK box riboswitch); assay: as above; parameters: species or system E. faecalis; conditions: 53-nt crystallization construct SMK6; [3H]-SAM
# Experimental: as §6, §1
# [14] = system: U72C mutant metK leader RNA; assay: 2-AP fluorescence quenching; format: binding, E. faecalis; conditions: SAM concentrations up to 100 μM
# Experimental: as §2, §3, §4
# [15] = system: E. faecalis SMK box A73G mutant RNA; assay: In vitro SAM binding assay (size-exclusion filtration); conditions: A73G mutation
# From the text: (§7) DNA templates corresponding to positions 15-118 (relative to the predicted transcription start site) of the E. faecalis metK leader were constructed by ligating overlapping pairs of complementary oligonucleotides, including a T7 RNA polymerase promoter sequence, as previously described (M. R. Yousef, et al., RNA, 9, 1148-1156 (2003) and B. A., McDaniel, et al., Mol. Microbiol., 57, 1008-1021 (2005)). Ligated products were amplified by PCR and RNAs were synthesized by T7 RNA polymerase transcription using an AmpliScribe T7 High Yield Transcription Kit (Epicentre Biotechnologies). RNAs (3 μM) in 1× transcription buffer (F. J. Grundy, et al., Nucleic Acids Res., 30, 1646-1655 (2002)) were heated to 65° C. for 5 minutes and slow-cooled to 40° C., followed by addition of radiolabeled SAM (3 μM [methyl-3H]-SAM, 15 Ci mmol^−1; GE Healthcare) in a total reaction volume of 40 μL, Binding reactions were incubated at room temperature (20-25° C.) for 15 minutes followed by passage through a Nanosep 10K Omega filter (Pall Life Sciences) by centrifugation at 14,000 g for 2.5 minutes. Filters were washed four times with 40 μL 1× transcription buffer to remove unbound SAM, and material retained by the filter was collected, mixed with Packard BioScience Ultima Gold scintillation fluid, and counted in a Packard Tri-Carb 2100TR liquid scintillation counter. No SAM was retained by the filter in the absence of RNA.
# [16] = system: E. faecalis SMK box C24G mutant RNA; assay: as above; conditions: C24G mutation
# From the text: as §7
# [17] = system: E. faecalis SMK box C24U G91A double mutant RNA; assay: as above; conditions: C24U G91A double mutation
# From the text: as §7
# [18] = system: E. faecalis SMK box C25U G90A double mutant RNA; assay: as above; conditions: C25U G90A double mutation
# From the text: as §7
# [19] = system: E. faecalis SMK box C25U mutant RNA; assay: as above
# From the text: as §7
# [20] = system: E. faecalis SMK box C76U G88A mutant RNA; assay: as above; conditions: C76U and G88A combined
# From the text: as §7
# [21] = system: E. faecalis SMK box C76U mutant RNA; assay: as above; conditions: C76U wobble mutation
# From the text: as §7
# [22] = system: E. faecalis SMK box G26A mutant RNA; assay: as above
# From the text: as §7
# [23] = system: E. faecalis SMK box G88A mutant RNA; assay: as above; conditions: G88A mismatch mutation
# From the text: as §7
# [24] = system: E. faecalis SMK box G90A mutant RNA; assay: as above; conditions: G90A mutation (C25•A90 mismatch)
# From the text: as §7
# [25] = system: E. faecalis SMK box RNA with linker region replaced by poly(A)6; assay: as above; conditions: 11-nt linker replaced with poly(A)6
# From the text: as §7
# [26] = system: E. faecalis SMK box RNA with poly(A)6 linker and G88 and G89 mutated to adenosine; assay: as above; conditions: poly(A)6 linker plus G88 and G89 to adenosine
# From the text: as §7
# [27] = system: E. faecalis SMK box U65 deletion mutant RNA; assay: as above
# From the text: as §7
# [28] = system: E. faecalis SMK box U65C mutant RNA; assay: as above; conditions: U65C mutation
# From the text: as §7
# [29] = system: E. faecalis SMK box U72C mutant RNA; assay: as above
# From the text: as §7
# [30] = system: 30S ribosomal subunit on the SMK box mRNA; assay: Ribosome toeprinting analysis; format: biochemical; conditions: in the presence of ligand
# [31] = system: E. faecalis SMK box U22G mutant RNA; conditions: U22G mutation; cited from earlier work
# [32] = system: E. faecalis SMK box A93C mutant RNA; conditions: A93C mutation; cited from earlier work
# [33] = system: E. faecalis SMK box U22G A93C double mutant RNA; conditions: cited from earlier work
# [34] = Spizizen medium with methionine
smiles,measurement,setting,value
"Nc1ncnc2c1ncn2[C@@H]1O[C@H](CSCC[C@H](N)C(=O)O)[C@@H](O)[C@H]1O [SAH, S-adenosyl-L-homocysteine]",competition by unlabeled SAH,SMK box riboswitch,no competition
same,quenching of 2-AP fluorescence,[1],not observed
"CSCC[C@H](N)C(=O)O [Met, methionine]",Ratio (−Met/+Met),[2],1.8
same,"Expression of metK-lacZ fusion, +Met (β-galactosidase activity)",[2]; [34],42 +/− 1.0
same,Ratio (−Met/+Met),[3],1.2
same,"Expression of metK-lacZ fusion, +Met (β-galactosidase activity)",[3]; [34],95 +/− 6.1
same,Ratio (−Met/+Met),[4],1.5
same,"Expression of metK-lacZ fusion, +Met (β-galactosidase activity)",[4]; [34],15 +/− 2.9
same,Ratio (−Met/+Met),[5],1.6
same,"Expression of metK-lacZ fusion, +Met (β-galactosidase activity)",[5]; [34],200 +/− 22
same,Ratio (−Met/+Met),[6],0.95
same,"Expression of metK-lacZ fusion, +Met (β-galactosidase activity)",[6]; [34],82 +/− 16
same,Ratio (−Met/+Met),[7],2.8
same,"Expression of metK-lacZ fusion, +Met (β-galactosidase activity)",[7]; [34],80 +/− 5.0
same,Ratio (−Met/+Met),[8],4.4
same,"Expression of metK-lacZ fusion, +Met (β-galactosidase activity)",[8]; [34],2.5 +/− 0.72
same,Ratio (−Met/+Met),[9],1.4
same,"Expression of metK-lacZ fusion, +Met (β-galactosidase activity)",[9]; [34],160 +/− 13
same,Ratio (−Met/+Met),[10],5.0
same,"Expression of metK-lacZ fusion, +Met (β-galactosidase activity)",[10]; [34],24 +/− 5.5
same,reduction in expression of lacZ reporter,[11],five
"C[S+](CC[C@H](N)C(=O)[O-])C[C@H]1O[C@@H](n2cnc3c(N)ncnc32)[C@H](O)[C@@H]1O (some centres unmarked) [SAM, S-adenosyl methionine]",pKd,[12],6.07
same,pKd,[13],6.24
same,pKd,"[1]; 2-AP fluorescence, excitation 310 nm, emission 375 nm, read-out: apparent Kd",5.99 and 6.00
same,quenching of 2-AP fluorescence,[1],concentration-dependent quenching
same,quenching of 2-AP fluorescence,[14],No quenching; also recorded: no substantial change in fluorescence
same,reduction in SAM binding activity,[15],80 fold
same,SAM binding,[16],loss of SAM binding
same,SAM binding,[17],restored SAM binding
same,SAM binding activity,[18],loss of SAM binding activity
same,SAM binding activity,[19]; C25U mutation (U25-G90 wobble pair),63%
same,SAM binding in vitro,[19]; C25U substitution,modest reduction
same,"SAM binding, of the wild-type level",[20],32%
same,SAM binding activity retained,[21],59%
same,reduction of SAM binding,[22],five
same,reduction in SAM binding activity,[23],75 fold
same,"SAM binding activity, of the wild type",[24],1.3%
same,SAM binding activity,[25],did not affect
same,SAM binding,[26],dramatically reduced
same,decrease in SAM binding activity,[27],20 fold
same,decrease in SAM binding activity,[28],5 fold
same,SAM binding in the filtration assay,[29]; U72C RNA,loss of SAM binding
same,decrease in SAM binding activity,[29]; U72C mutation,70 fold
same,correct positioning of the 30S ribosomal subunit on the SMK box mRNA,[30],reduced
same,SAM binding in vitro,[31],loss of SAM binding
same,SAM binding in vitro,[32],loss of SAM binding
same,SAM binding,[33],restores SAM binding
